Assay results reported in US9326973B2, “Hepatitis C virus inhibitors” (priority 2012, dated 2016).

tested on: HCV replicon, genotype-1a variant with glutamine 30 changed to glutamate in the NS5A protein; assay: microbe, parasite or virus in culture; assay type: cell-based, HCV genotype 1a; settings: not given
Method in brief: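 Synergy was assessed by combining several fixed amounts of an NS5A-targeting compound with a titration of the second compound of interest.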

Structure (SMILES) | reciprocal synergistic inhibitory effect for the combination [fold]
COC(=O)N[C@H](C(=O)N1CCC[C@H]1c1nc(-c2ccc(-c3ccc(-c4c[nH]c([C@@H]5CCCN5C(=O)[C@@H](NC(=O)OC)C(C)C)n4)cc3)cc2)c[nH]1)C(C)C [BMS-790052, reference compound] | ~100

same assay, conditions: HCV replicon genotype 1a Q30E (Q→E) variant; test compound titrated with an NS5A-targeting compound (BMS-790052 fixed at 200 nM); ranking of synergist activity

Structure (SMILES) | Fold-Synergistic 1a (Q30E) [fold]
COC(=O)N(C)C1(C(=O)N[C@H](c2nc(-c3ccc(-c4ccc(-c5c[nH]c([C@@H](NC(=O)C6(N(C)C(=O)OC)CC6)C6(C)CC6)n5)cc4)cc3)c[nH]2)C2(C)CC2)CC1 [Compound L-30] | >100
COCC1(C(=O)N[C@H](c2nc(-c3ccc(-c4ccc(-c5c[nH]c([C@@H](NC(=O)C6(COC)CCCCO6)C(C)(C)C)n5)cc4)cc3)c[nH]2)C(C)(C)C)CCCCO1 (some centres unmarked) [Compound P-183] | >100
CC(C)(C)[C@H](NC(=O)Cc1ccccc1OC(F)(F)F)c1nc(-c2ccc(-c3ccc(-c4c[nH]c([C@@H](NC(=O)Cc5ccccc5OC(F)(F)F)C(C)(C)C)n4)cc3)cc2)c[nH]1 [Compound Y-73] | >100
CC(C)(C)[C@H](NC(=O)C1CCC(=O)CC1)c1nc(-c2ccc(-c3ccc(-c4c[nH]c([C@@H](NC(=O)C5CCC(=O)CC5)C(C)(C)C)n4)cc3)cc2)c[nH]1 [Compound W-173] | >100
CC1(C(=O)N[C@H](c2nc(-c3ccc(-c4ccc(-c5c[nH]c([C@@H](NC(=O)C6(C)CC7C=CC6C7)C(C)(C)C)n5)cc4)cc3)c[nH]2)C(C)(C)C)CC2C=CC1C2 (some centres unmarked) [Compound S-298] | >100
CC1(C)CCCC(C)(C(=O)N[C@H](c2nc(-c3ccc(-c4ccc(-c5c[nH]c([C@@H](NC(=O)C6(C)CCCC(C)(C)O6)C(C)(C)C)n5)cc4)cc3)c[nH]2)C(C)(C)C)O1 (some centres unmarked) [Compound W-167] | >100
CC(C)(C)[C@H](NC(=O)C(=O)N1CC(F)(F)C1)c1nc(-c2ccc(-c3ccc(-c4c[nH]c([C@@H](NC(=O)C(=O)N5CC(F)(F)C5)C(C)(C)C)n4)cc3)cc2)c[nH]1 [Compound W-28] | >100
CC(C)[C@H](NC(=O)c1cc(Cl)ccc1F)c1nc(-c2ccc(-c3ccc(-c4c[nH]c([C@@H](NC(=O)c5cc(Cl)ccc5F)C(C)C)n4)c(F)c3)cc2)c[nH]1 [Compound N-88] | >100
Cc1nn(-c2ccccc2)nc1C(=O)N1CCC[C@H]1c1ncc(-c2ccc(-c3ccc(-c4cnc([C@@H]5CCCN5C(=O)c5nn(-c6ccccc6)nc5C)[nH]4)cc3)cc2)[nH]1 [Compound S-129] | >100
O=C(N1CCC[C@H]1c1ncc(-c2ccc(-c3ccc(-c4cnc([C@@H]5CCCN5C(=O)C5(c6ccc(F)cc6Cl)CCCC5)[nH]4)cc3)cc2)[nH]1)C1(c2ccc(F)cc2Cl)CCCC1 [Compound S-156] | <10
O=C(CC1CCCC1)N1CCC[C@H]1c1ncc(-c2ccc(-c3ccc(-c4cnc([C@@H]5CCCN5C(=O)CC5CCCC5)[nH]4)cc3)cc2)[nH]1 [Compound S-165] | >10
CC(C)[C@H](NC(=O)C(C)(C)F)c1nc(-c2ccc(-c3ccc(-c4c[nH]c([C@@H](NC(=O)C(C)(C)F)C(C)C)n4)cc3F)cc2)c[nH]1 [Compound N-97] | >100
O=C(NC(c1nc(-c2ccc(-c3ccc(-c4c[nH]c(C(NC(=O)C5CCC(F)(F)CC5)C5(C(F)(F)F)CC5)n4)cc3)cc2)c[nH]1)C1(C(F)(F)F)CC1)C1CCC(F)(F)CC1 (centres unmarked) [Compound N-109B] | >100
CC(C)(C)OC(=O)N1C[C@@H](F)C[C@H]1C(=O)N[C@H](c1nc(-c2ccc(-c3ccc(-c4c[nH]c([C@@H](NC(=O)[C@@H]5C[C@H](F)CN5C(=O)OC(C)(C)C)C(C)(C)C)n4)cc3)cc2)c[nH]1)C(C)(C)C [Compound W-83] | >100
CC(C)[C@H](NC(=O)C(C)(C)F)c1nc(-c2ccc(-c3ccc(-c4c[nH]c([C@@H](NC(=O)C(C)(C)F)C(C)C)n4)c(F)c3)cc2)c[nH]1 [Compound N-90] | >100
O=C(c1cncnc1)N1CCC[C@H]1c1ncc(-c2ccc(-c3ccc(-c4cnc([C@@H]5CCCN5C(=O)c5cncnc5)[nH]4)cc3)cc2)[nH]1 [Compound S-195] | <10
CC1(C(=O)N[C@H](c2nc(-c3ccc(-c4ccc(-c5c[nH]c([C@@H](NC(=O)C6(C)OCCCO6)C(C)(C)C)n5)cc4)cc3)c[nH]2)C(C)(C)C)OCCCO1 [Compound L-83] | >100
CC(C)OC(=O)N1C[C@H](F)C[C@H]1C(=O)N[C@H](c1nc(-c2ccc(-c3ccc(-c4c[nH]c([C@@H](NC(=O)[C@@H]5C[C@@H](F)CN5C(=O)OC(C)C)C(C)(C)C)n4)cc3)cc2)c[nH]1)C(C)(C)C [Compound W-107] | >100
CC(C)(C(=O)N[C@H](c1nc(-c2ccc(-c3ccc(-c4c[nH]c([C@@H](NC(=O)C(C)(C)C(=O)N5CC[C@H](O)C5)C(C)(C)C)n4)cc3)cc2)c[nH]1)C(C)(C)C)C(=O)N1CC[C@H](O)C1 [Compound W-152] | >100

Structure (SMILES) | Fold-Synergistic 1a (Q30E) [fold]
C[C@H]1C[C@@H](C(=O)N[C@H](c2nc(-c3ccc(-c4ccc(-c5c[nH]c([C@@H](NC(=O)[C@@H]6C[C@H](C)CN6C(=O)OC(C)(C)C)C(C)(C)C)n5)cc4)cc3)c[nH]2)C(C)(C)C)N(C(=O)OC(C)(C)C)C1 [Compound W-68] | >100
CC1([C@H](NC(=O)C(C)(C)C2(O)CCC(F)(F)CC2)c2nc(-c3ccc(-c4ccc(-c5c[nH]c([C@@H](NC(=O)C(C)(C)C6(O)CCC(F)(F)CC6)C6(C)CC6)n5)cc4)cc3)c[nH]2)CC1 [Compound P-144] | >100
COC(=O)N[C@H](C(=O)N[C@H](c1nc(-c2ccc3cc(-c4ccc(-c5cnc([C@@H](NC(=O)[C@@H](NC(=O)OC)C(C)C)C(C)(C)C)[nH]5)cc4)ccc3c2)c[nH]1)C(C)(C)C)C(C)C [Compound N-7] | <10
CC(C)(C(=O)N[C@H](c1nc(-c2ccc(-c3ccc(-c4c[nH]c([C@@H](NC(=O)C(C)(C)C5(O)CCC(F)(F)CC5)C5CC5)n4)cc3)cc2)c[nH]1)C1CC1)C1(O)CCC(F)(F)CC1 [Compound L-91] | >100
CC(C)(C)[C@H](NC(=O)C1CCC(F)(F)CC1)c1nc(-c2ccc(-c3cnc(-c4c[nH]c([C@@H](NC(=O)C5CCC(F)(F)CC5)C(C)(C)C)n4)cn3)cc2)c[nH]1 [Compound N-104] | >100
CC(=O)N(C)C1(C(=O)N[C@H](c2nc(-c3ccc(-c4ccc(-c5c[nH]c([C@@H](NC(=O)C6(N(C)C(C)=O)CCC6)C(C)(C)C)n5)cc4)cc3)c[nH]2)C(C)(C)C)CCC1 [Compound L-12] | >100
O=C(c1cccc2c1OCC2)N1CCC[C@H]1c1ncc(-c2ccc(-c3ccc(-c4cnc([C@@H]5CCCN5C(=O)c5cccc6c5OCC6)[nH]4)cc3)cc2)[nH]1 [Compound S-139] | >10
CC(C)[C@H](NC(=O)C(=O)N1CCC(F)(F)CC1)c1nc(-c2ccc(-c3ccc(-c4c[nH]c([C@@H](NC(=O)C(=O)N5CCC(F)(F)CC5)C(C)C)n4)cc3)cc2)c[nH]1 [Compound W-51] | >100
COC(=O)CCC(=O)N1CCC[C@H]1c1ncc(-c2ccc(-c3ccc(-c4cnc([C@@H]5CCCN5C(=O)CCC(=O)OC)[nH]4)cc3)cc2)[nH]1 [Compound S-173] | <10
O=C(c1csc(-c2cccnc2)n1)N1CCC[C@H]1c1ncc(-c2ccc(-c3ccc(-c4cnc([C@@H]5CCCN5C(=O)c5csc(-c6cccnc6)n5)[nH]4)cc3)cc2)[nH]1 [Compound S-130] | >10
CC(C)(C)OC(=O)N[C@@H]1CCC[C@H]1C(=O)N[C@H](c1nc(-c2ccc(-c3ccc(-c4c[nH]c([C@@H](NC(=O)[C@@H]5CCC[C@H]5NC(=O)OC(C)(C)C)C(C)(C)C)n4)cc3)cc2)c[nH]1)C(C)(C)C [Compound W-12] | >100
CC(C)(C)[C@H](NC(=O)[C@H](O)C1CCCCC1)c1nc(-c2ccc(-c3ccc(-c4c[nH]c([C@@H](NC(=O)[C@H](O)C5CCCCC5)C(C)(C)C)n4)cc3)cc2)c[nH]1 [Compound L-74] | >100
CC1(C(=O)N[C@H](c2nc(-c3ccc(-c4ccc(-c5c[nH]c([C@@H](NC(=O)C6(C)COC(c7ccccc7)OC6)C(C)(C)C)n5)cc4)cc3)c[nH]2)C(C)(C)C)COC(c2ccccc2)OC1 (some centres unmarked) [Compound S-280] | >100
CC(C)(C)[C@H](NC(=O)C(C)(C)n1cnc(C(F)(F)F)c1)c1nc(-c2ccc(-c3ccc(-c4c[nH]c([C@@H](NC(=O)C(C)(C)n5cnc(C(F)(F)F)c5)C(C)(C)C)n4)cc3)cc2)c[nH]1 [Compound W-150] | >100
O=C(c1ccccc1)N1CCC[C@H]1c1ncc(-c2ccc(-c3ccc(-c4cnc([C@@H]5CCCN5C(=O)c5ccccc5)[nH]4)cc3)cc2)[nH]1 [Compound S-106] | <10
CC(C)(C)OC(=O)N1CCCC[C@@H]1C(=O)N[C@H](c1nc(-c2ccc(-c3ccc(-c4c[nH]c([C@@H](NC(=O)[C@H]5CCCCN5C(=O)OC(C)(C)C)C(C)(C)C)n4)cc3)cc2)c[nH]1)C(C)(C)C [Compound L-16] | >100
Cc1cc(-c2ccc(-c3c[nH]c([C@@H](NC(=O)c4c(F)cccc4Cl)C(C)C)n3)cc2)ccc1-c1c[nH]c([C@@H](NC(=O)c2c(F)cccc2Cl)C(C)C)n1 [Compound N-81] | >100
CC(C)(C)OC(=O)N1[C@@H]2CC2C[C@H]1C(=O)N[C@H](c1nc(-c2ccc(-c3ccc(-c4c[nH]c([C@@H](NC(=O)[C@@H]5CC6C[C@H]6N5C(=O)OC(C)(C)C)C(C)(C)C)n4)cc3)cc2)c[nH]1)C(C)(C)C (some centres unmarked) [Compound W-67] | >100
CC1(C(=O)N2CCC[C@H]2c2ncc(-c3ccc(-c4ccc(-c5cnc([C@@H]6CCCN6C(=O)C6(C)CC6)[nH]5)cc4)cc3)[nH]2)CC1 [Compound S-160] | <10

same assay, conditions: Hepatitis C virus; genotype 1a Q30E replicon; P-55 fixed at 200 nM; read-out: EC50 of BMS-790052 in the presence of a fixed amount of P-55

Structure (SMILES) | EC50 [nM]
COC(=O)N[C@H](C(=O)N1CCC[C@H]1c1nc(-c2ccc(-c3ccc(-c4c[nH]c([C@@H]5CCCN5C(=O)[C@@H](NC(=O)OC)C(C)C)n4)cc3)cc2)c[nH]1)C(C)C [BMS-790052, reference compound] | ~2

same assay, conditions: Hepatitis C virus; genotype 1a Q30E replicon; compound alone; read-out: EC50, titrated singly

Structure (SMILES) | EC50 [nM]
COC(=O)N[C@H](C(=O)N1CCC[C@H]1c1nc(-c2ccc(-c3ccc(-c4c[nH]c([C@@H]5CCCN5C(=O)[C@@H](NC(=O)OC)C(C)C)n4)cc3)cc2)c[nH]1)C(C)C [BMS-790052, reference compound] | ~200
